The text below walks through data of ChEMBL document CHEMBL1201862, “PubChem BioAssay data set” (2004).

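These data come from cells grown in 96-well plates and exposed to compound for 48 hours at five concentrations. GI50 = concentration required for 50% inhibition of growth.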 Activity calls are given as the source filed them. No stated cut-off is given here; in the data, active = GI50 up to about 1.1 µM and inactive = higher. Some results are limits rather than exact numbers.

Assay in all cases: inhibition of tumour cell growth, NCI panel, 48 h
Assay [1] has as its system CCRF-CEM.
Assay [2] relates to HOP-62.
For assay [3], the system named is HOP-92.
Assay [4] concerns HT-29.
The test system of assay [5] is IGROV-1.
The subject of assay [6] is MOLT-4.
Assay [7] relates to OVCAR-3.
Assay [8] concerns OVCAR-5.
Assay [9] concerns RPMI-8226.
Assay [10] has as its system SF-539.
Assay [11] has as its system SK-MEL-28.
In assay [12] the test system is SK-MEL-2.
Assay [13] concerns SK-MEL-5.
For assay [14], the system named is SN12C.
Assay [15] has as its system U-251.
Assay [16] has as its system UACC-257.
Assay [17] concerns UACC-62.
In assay [18] the test system is UO-31.
In assay [19] the test system is TK-10.

For `COc1nc2c(c(=O)[nH]1)N=C(c1ccc([N+](=O)[O-])cc1)CC(c1ccccc1)N2` (stereo not given), the GI50 in assay [1] was 37.9 µM (inactive); in assay [2], > 100 µM (inactive); in assay [3], 84.3 µM (inactive); in [4], > 100 µM (inactive); in assay [5], > 100 µM (inactive); in [6], 54.3 µM (inactive). Further, the GI50 in assay [7] is > 100 µM (inactive); in [8], > 100 µM (inactive); in assay [9], 44.1 µM (inactive); in assay [10] it was > 100 µM (inactive); in [11], 94.8 µM (inactive); in assay [12], > 100 µM (inactive). Further, the GI50 was 49.7 µM (inactive) in assay [13]; > 100 µM (inactive) in assay [14]; > 100 µM (inactive) in assay [15]; > 100 µM (inactive) in assay [16]; 59.2 µM (inactive) in [17]; 62.4 µM (inactive) in [18].
As for `CN(C(=O)C12C3C4C5C3C1(C(=O)O)C5C42)C(C)(C)C` (stereo not given), the GI50 in assay [1] was 76.6 µM (inactive); in assay [2], > 100 µM (inactive); in [3], > 100 µM (inactive); in assay [4] it was 78.5 µM (inactive); in assay [5], > 100 µM (inactive); in [6] it was > 100 µM (inactive). The GI50 in [7] was > 100 µM (inactive); in assay [8] it was > 100 µM (inactive); in assay [9], 52 µM (inactive); in [10], > 100 µM (inactive); in assay [11], > 100 µM (inactive); in assay [12], > 100 µM (inactive). Further, the GI50 in assay [13], in assay [14], in [19], in assay [15], in assay [16] and in [17] was > 100 µM (inactive) each time. Besides, the GI50 in assay [18] is > 100 µM (inactive).
As to `Nc1nc2c(ncn2CCCC(c2ccccc2)P(=O)(O)O)c(=O)[nH]1` (stereo not given), the GI50 in assay [1] is > 100 µM (inactive); in assay [2], > 100 µM (inactive); in [3] it was 91.8 µM (inactive); in assay [4], > 100 µM (inactive); in [5], > 100 µM (inactive); in [6], > 100 µM (inactive). Besides, the GI50 in assay [7], in [8], in assay [9], in assay [10], in assay [11] and in assay [12] was > 100 µM (inactive) in each case. Also, the GI50 in [13], in [14], in assay [19], in assay [15], in [16] and in assay [17] was > 100 µM (inactive) each time. Moreover, the GI50 in assay [18] is > 100 µM (inactive).
Consider `Cc1cc2c(C(C)C)c(O)c(O)c(/C=N\CCO)c2c(O)c1-c1c(C)cc2c(C(C)C)c(O)c(O)c(/C=N/CCO)c2c1O`, for which the GI50 in assay [1] was 0.653 µM (active); in assay [2], 2.6 µM (inactive); in [3], 1.75 µM (inactive); in assay [4], 2.28 µM (inactive); in [5], 1.91 µM (inactive); in assay [6], 0.527 µM (active). Besides, the GI50 is 2.02 µM (inactive) in assay [7]; 3.66 µM (inactive) in assay [8]; 1.19 µM (inactive) in [9]; 2.54 µM (inactive) in assay [10]; 1.67 µM (inactive) in assay [11]; 3.15 µM (inactive) in assay [12]. The GI50 is 1.73 µM (inactive) in assay [13]; 2.84 µM (inactive) in assay [14]; 6.4 µM (inactive) in assay [19]; 1.21 µM (inactive) in assay [15]; 2.32 µM (inactive) in assay [16]; 2.74 µM (inactive) in assay [17]. Moreover, the GI50 in assay [18] was 3.44 µM (inactive).
On to `COc1cccc(C2C(C(=O)Nc3cc(=O)n(C)c(=O)n3C)=C(C)NC(C)=C2C(=O)Nc2cc(=O)n(C)c(=O)n2C)c1O`, for which the GI50 in assay [1] is 86.7 µM (inactive); in assay [2], > 100 µM (inactive); in assay [3] it was > 100 µM (inactive); in assay [4], > 100 µM (inactive); in [5] it was > 100 µM (inactive); in assay [6], > 100 µM (inactive). Besides, the GI50 in assay [7] is > 100 µM (inactive); in assay [8] it was > 100 µM (inactive); in assay [9], 66.1 µM (inactive); in [10] it was > 100 µM (inactive); in [11], > 100 µM (inactive); in assay [12], > 100 µM (inactive). In addition, the GI50 in assay [13], in assay [14], in assay [19], in assay [15], in [16] and in assay [18] was > 100 µM (inactive) in each case.
Regarding `C[N+](C)(C)CC(=O)N/N=C(/C=C/c1ccccc1)CC1OC(=O)c2ccccc21` (stereo not given), the GI50 in assay [1] is > 100 µM (inactive); in [2] it was > 100 µM (inactive); in assay [3], > 10 µM (inactive); in assay [4] it was > 10 µM (inactive); in assay [5] it was > 100 µM (inactive); in assay [6] it was > 100 µM (inactive). For the same compound, the GI50 in [8] is > 10 µM (inactive); in assay [9], > 100 µM (inactive); in assay [10] it was > 100 µM (inactive); in assay [11], > 100 µM (inactive); in assay [12], > 100 µM (inactive); in assay [13] it was > 100 µM (inactive). For the same compound, the GI50 in assay [14], in [19], in assay [15], in [16], in [17] and in assay [18] was > 100 µM (inactive) throughout.
In the case of `COC(=O)CCC(=O)CC(=O)C(=O)Nc1c(Cl)cc([N+](=O)[O-])cc1Cl`, the GI50 is 57.3 µM (inactive) in assay [1]; > 100 µM (inactive) in assay [2]; 38.7 µM (inactive) in assay [3]; > 100 µM (inactive) in [4]; > 100 µM (inactive) in assay [5]; > 100 µM (inactive) in assay [6]. Moreover, the GI50 in [7] was > 100 µM (inactive); in [8] it was > 100 µM (inactive); in assay [9], 33.4 µM (inactive); in [10] it was > 100 µM (inactive); in [11], > 100 µM (inactive); in assay [12], > 100 µM (inactive). In addition, the GI50 in assay [13], in assay [14], in assay [19], in assay [15], in [16] and in assay [17] was > 100 µM (inactive) in each case. Moreover, the GI50 in assay [18] was > 100 µM (inactive).
With `O=C1C(N2C(=O)c3ccccc3C2=O)CN1C(COCc1ccccc1)c1ccc(OCc2ccccc2)cc1` (stereo not given), the GI50 in assay [1], in assay [2], in assay [3], in assay [4], in assay [5] and in assay [6] was > 100 µM (inactive) in each case. Further, the GI50 in [7], in assay [8], in assay [9], in [10], in assay [11] and in assay [13] was > 100 µM (inactive) each time. Moreover, the GI50 in assay [14], in assay [19], in [15], in [16], in [17] and in [18] was > 100 µM (inactive) in each case.
Consider `CCOc1ccc2c(c1)[n+]([O-])c(C(N)=O)c(N)[n+]2[O-]`, for which the GI50 in [1] was 94 µM (inactive); in [2] it was > 100 µM (inactive); in assay [3], > 100 µM (inactive); in [4], > 100 µM (inactive); in assay [5] it was > 100 µM (inactive); in assay [6], > 100 µM (inactive). Besides, the GI50 in [7], in [8], in assay [10], in assay [11], in [12] and in assay [13] was > 100 µM (inactive) in each case. Also, the GI50 in assay [14], in assay [15], in [16] and in [18] was > 100 µM (inactive) each time.
Consider `COc1ccc(-c2nc3c(nc2-c2ccc(OC)cc2)N(C)S(=O)(=O)N=C3N)cc1`, for which the GI50 in assay [1] is 23.1 µM (inactive); in assay [2] it was 33.6 µM (inactive); in assay [3] it was 13.6 µM (inactive); in assay [4], 25.4 µM (inactive); in assay [5], 28.1 µM (inactive); in assay [6] it was 11.9 µM (inactive). Besides, the GI50 is 14 µM (inactive) in [7]; 25.2 µM (inactive) in [8]; 10.6 µM (inactive) in assay [9]; 18.3 µM (inactive) in assay [10]; 32.1 µM (inactive) in [11]; 20.5 µM (inactive) in [12]. The GI50 is 11.6 µM (inactive) in [13]; 41 µM (inactive) in assay [14]; 28.1 µM (inactive) in [19]; 26.1 µM (inactive) in assay [15]; 22.8 µM (inactive) in assay [17]; 13.6 µM (inactive) in assay [18].
As to `O=C1CN(c2ccccc2)C(=O)CN1NCNN1CC(=O)N(c2ccccc2)CC1=O`, the GI50 in [1], in [2], in assay [3], in assay [4], in assay [5] and in assay [6] was > 100 µM (inactive) throughout. The GI50 in [7], in [8], in [9], in [10], in assay [11] and in [13] was > 100 µM (inactive) throughout. Moreover, the GI50 in assay [14], in assay [19], in assay [15], in assay [16], in assay [17] and in [18] was > 100 µM (inactive) in each case.
